Laboratory results from patent US7833532B2, “Immunogenic lipopeptides comprising T-helper and cytotoxic T lymphocyte (CTL) epitopes” (The Council of The Queensland Institute of Medical Research, priority 2002, dated 2010).
Where “and” joins values, the source holds several entries; their conditions need not be identical. Equal entries are not always repeated.

How the values were obtained:
[1] = tested on: syngeneic spleen cells pulsed with the CTL determinant; details: mouse
splenocytes = assay: IFN-gamma secreting splenocytes in mice vaccinated with […] peptides and challenged with B16-OVA; type: in vivo, C57BL/6 mice; details: 20 nmoles s.c., B16-OVA challenge; for No. IFN-γ secreting splenocytes per 10^6 splenocytes, Average: average of three samples; for No. IFN-γ secreting splenocytes per 10^6 splenocytes: individual samples, in vitro stimulation with SIINFEKL
Procedure: (§1) Each of 9 C57BL/6 mice (8-10 wks) were immunised subcutaneously with 20 nmoles of lipidated [P25]-Lys(Pam2Cys-Ser-Ser)-[[…]] ([…] disclosed as SEQ ID NO: 173) or non-lipidated [P25]-Lys-[[…]] ([…] disclosed as SEQ ID NO: 173) peptide in 100 μl volume of saline. In the case of lipidated peptide, lipid was attached between the two epitopes at the approximate centre of the molecule.
CTL-specific IFN-γ-secreting cells were enumerated by an ELISPOT assay modified from that of Murali-Krishna et al., Immunity 8, 177-187, 1998. Flat-bottom polyvinyl chloride microtiter plates (96-well: Dynatech) were coated overnight with 50 μl of rat anti-(mouse IFN-γ) antibody (clone R4-14a2) at 5 μg/ml in PBS. Unoccupied sites on the wells were then blocked by incubation for 1 h with 10 mg of bovine serum albumin/ml in PBS, and the plates were washed three times with PBS containing 0.05% Tween 20 (PBST). Twofold dilutions of spleen or lymph node cells in T-cell medium were then added to the wells, together with 5×10^5 irradiated (2,200 rads, ^60Co source) syngeneic spleen cells from unimmunized mice and 10 U of recombinant human interleukin-2 (Pharmingen, San Diego, Calif.)/well. Cells were incubated at 37° C. in 5% CO2 for 18 h in the presence or absence of the CTL peptide at a concentration of 1 μg of peptide/ml. Cells were then lysed and removed by rinsing the plates, initially with distilled water and then PBST. Then, 50 μl of a 1/500 dilution of biotinylated anti-(mouse IFN-γ) antibody (clone XMG 1.2; Pharmingen) was added, and the plates were incubated at room temperature for 2 h. Plates were again washed, and 50 μl of streptavidin-alkaline phosphatase (Pharmingen; 1/400 dilution in 5 mg of bovine serum albumin/ml of PBST) was added to each well; the mixtures were then incubated for a further 2 h. […] When blue-green spots had developed, the plates were washed with water and dried, and the spots were counted with the aid of an inverted microscope.
The ability of the lipopeptide vaccine containing the ovalbumin CTL epitope ([…]) (SEQ ID NO: 173) to induce protection against melanoma cells expressing this CTL epitope (B16-OVA cells) was assessed. IFN-γ production was determined in mice inoculated with lipopeptide comprising a CDV-F T-helper epitope (P25) and a CTL epitope ([…]) (SEQ ID NO: 173) of ovalbumin linked via the epsilon amino group of an internal lysine residue positioned between said epitopes to Pam2Cys (i.e. the peptide [P25]-Lys(Pam2Cys-Ser-Ser)-[[…]] ([…] disclosed as SEQ ID NO: 173) listed in FIG. 2 and based upon SEQ ID NO: 174). […] (SEQ ID NO: 173) and the number of IFN-γ producing cells per 1,000,000 splenocytes was measured.

B16-OVA cells = assay: Protection against B16-OVA melanoma challenge (tumour growth); type: in vivo, C57BL/6 mice; details: 20 nmoles s.c., 2×10^5 B16-OVA cells 14 days later
Excerpt: FIG. 13 is a graphical representation showing protection against B16 melanoma with lipopeptide vaccination. C57BL/6 mice were vaccinated with 20 nmoles lipidated peptide [P25]-Lys(Pam2Cys-Ser-Ser)-[[…]] ([…] disclosed as SEQ ID NO: 173) (open circles), non-lipidated peptide [P25]-Lys-[[…]] ([…] disclosed as SEQ ID NO: 173) (open triangles) or with PBS (open squares) subcutaneously in the base of the tail. Mice were then challenged s.c. on the back 14 days later with 2×10^5 B16-OVA cells (n=6 per group) and tumour growth monitored as described (Anraku, et al., J Virol. 76; 3791-3799, 2002).
as §1
14 days after inoculation with non-lipidated [P25]-Lys-[[…]] ([…] disclosed as SEQ ID NO: 173) or lipidated peptide [P25]-Lys(Pam2Cys-Ser-Ser)-[[…]] […] Growing tumors were monitored, and the animals were sacrificed when tumor size reached 15 by 15 mm. Mean tumor area was calculated for each treatment group at the indicated number of days after the tumor challenge.

[2] = tested on: Lewis Lung tumour cells transfected with ovalbumin; assay: Therapeutic treatment of Lewis Lung tumour expressing ovalbumin (tumour incidence and survival); type: in vivo, mice; details: 20 nmoles s.c. 4 and 11 days after tumour cells; versus non-lipidated peptide or PBS
Procedure: FIG. 14 is a graphical representation showing therapeutic treatment of Lewis Lung tumour with a lipopeptide immunogen, as determined by the percentage of animals that remain tumor free following immunization. Mice were injected with 3×10^4 Lewis Lung tumour cells that had been transfected with ovalbumin and therefore expressed the CTL epitope […] (SEQ ID NO: 173) [Nelson et al. J Immunol. 166: 5557-5566, 2001]. Four days after receiving tumour cells, animals were inoculated with 20 nmoles lipidated peptide [P25]-Lys(Pam2Cys-Ser-Ser)-[[…]] ([…] disclosed as SEQ ID NO: 173) (open circles), non-lipidated peptide [P25]-Lys-[[…]] […] Animals were monitored for tumour incidence; animals were euthanased when tumour area exceeded 100 mm^2.
FIG. 15 is a graphical representation showing therapeutic treatment of Lewis Lung tumour with a lipopeptide immunogen, as determined by measuring survival of animals following immunization. […] Animals were monitored for survival; animals were euthanased when tumour area exceeded 100 mm^2.
Mice were injected with 3×10^4 Lewis Lung tumour cells that had been transfected with ovalbumin and therefore expressed the CTL epitope (Nelson et al., J Immunol. 166: 5557-5566, 2001). […] Animals were monitored for tumour incidence and survival; animals were euthanased when tumour area exceeded 100 mm^2.

Mem 71 influenza virus = details: in vivo
D1 cells = assay: Maturation of D1 dendritic cells (surface MHC class II, flow cytometry); type: cell-based, BALB/c mouse; details: D1 cells, overnight incubation, 0.45 nmoles/mL; LPS positive control

With `CCCCCCCCCCCCCCCC(=O)N[C@@H](CSCC(COC(=O)CCCCCCCCCCCCCCC)OC(=O)CCCCCCCCCCCCCCC)C(=O)N[C@@H](CO)C(=O)N[C@@H](CO)C(=O)NCCCC[C@H](NC(=O)[C@H](CO)NC(=O)[C@H](CCCCN)NC(=O)[C@H](CC(C)C)NC(=O)[C@H](CCC(=O)O)NC(=O)[C@@H](NC(=O)CNC(=O)[C@H](CCCCN)NC(=O)[C@@H](NC(=O)[C@H](CCC(N)=O)NC(=O)[C@H](Cc1ccccc1)NC(=O)[C@H](CCCNC(=N)N)NC(=O)[C@H](CC(N)=O)NC(=O)[C@H](CC(N)=O)NC(=O)[C@H](CC(C)C)NC(=O)[C@H](C)N)[C@@H](C)CC)C(C)C)C(=O)N[C@H](C(=O)N[C@@H](Cc1ccc(O)cc1)C(=O)N[C@@H](CCC(N)=O)C(=O)N[C@@H](CCCNC(=N)N)C(=O)N[C@H](C(=O)N[C@@H](CCCNC(=N)N)C(=O)N[C@@H](C)C(=O)N[C@@H](CC(C)C)C(=O)N[C@H](C(=O)O)C(C)C)[C@@H](C)O)[C@@H](C)O` (stereo partly drawn) [[Th]-Lys(Pam3Cys-Ser-Ser)-[CTL]] the “CTL determinant specific cytotoxicity (specific lysis) in vivo” value [1] was “marked enhancement of specific lysis in vivo”.

With “KLIPNASLIENCTKAELKSIINFEKL [reference compound]” the “No. IFN-γ secreting splenocytes per 10^6 splenocytes, Average” value (splenocytes) was 14 per 10^6 splenocytes, the “No. IFN-γ secreting splenocytes per 10^6 splenocytes” value (splenocytes) was 18 per 10^6 splenocytes and 14 per 10^6 splenocytes and 10 per 10^6 splenocytes and the tumour size (B16-OVA cells; 15 day period) was “greater than 75 mm^2”.

In the case of “[P25]-Lys(Pam2Cys-Ser-Ser)-[SIINFEKL]: peptide [P25]-Lys-[SIINFEKL] and a lipid of the Formula (IV) conjugated to the epsilon-amino group of the internal lysine (KLIPNASLIENCTKAELKSIINFEKL; Pam2Cys-Ser-Ser lipid on internal lysine)”, the “No. IFN-γ secreting splenocytes per 10^6 splenocytes, Average” value (splenocytes) is reported as 227 per 10^6 splenocytes, the “No. IFN-γ secreting splenocytes per 10^6 splenocytes” value (splenocytes) is reported as 284 per 10^6 splenocytes and 205 per 10^6 splenocytes and 192 per 10^6 splenocytes and the “percentage of animals with fewer lesions developing (tumour free)” value [2] is reported as “significantly higher”. For the same molecule, the survival [2] was “survived for longer” and the “tumour growth (in words)” value (B16-OVA cells; over a 15 day period) was “No tumour growth”.

For “ALNNRFQIKGVELKSKTYQRTRALV [[Th]-Lys-[CTL]]”, the “reduction in viral load in the lungs compared to PBS alone” value (Mem 71 influenza virus) was 65% and the “maturation of dendritic cells / up-regulation of MHC class II expression (comparative, in words)” value (D1 cells) was “least effective”.
